In article PMC12040169 (PLOS Biology, 2025):

assay: in vitro; details: human, hela cells, % viability

| SMILES | viability at 28.5 h, 10 µM [%] |
| --- | --- |
| Nc1nonc1-n1nncc1CN1CCCCC1 [CBK307045] | 86.9 |
| Cn1c(=O)n(CC(N)=O)c(=O)c2c1nc1oc(C(C)(C)C)cn12 [CBK306081] | 96.5 |
| N#C/C(=C\c1cn(-c2ccccc2)nc1-c1cccc(S(=O)(=O)N2CCOCC2)c1)c1nc2ccccc2c(=O)[nH]1 [CBK266357] | 98.1 |
| CC(CCc1ccccc1)N(C)CCN(C)C (centres unmarked) [CBK261933] | 80.5 |
| O=C(Nc1ccc(Cl)c(Cl)c1)c1cnc2n(c1=O)CCS2 [CBK287381] | 108 |
| c1cc(-c2cncc(-c3ccsc3)n2)cs1 [CBK113356] | 95.7 |
| CCN(CC)CCN1CCN(c2cc(-c3cccnc3)ncn2)CC1 [CBK036957] | 94.8 |
| CCOc1cc(NC2CCN(C(=O)NCC(F)F)CC2)ncn1 [CBK305485] | 85.6 |
| CCc1nc2c(OCCOc3ccc(F)cc3)cccn2c1N(C)C(=O)c1ccncc1 [CBK147472] | 93.6 |
| CC(C)Nc1nccnc1Sc1cccc2ccccc12 [CBK089493] | 100 |
| COC1C(O)C(CO)OC1n1cnc2c(=O)[nH]cnc21 (centres unmarked) [CBK201328] | 91.3 |
| OCCN1CCN(c2nc(-c3ccc4c(c3)OCO4)cn3ccnc23)CC1 [CBK037443] | 99.1 |
| COc1ccc(-c2ccc(=O)n(CC(=O)NCc3ccc(C(=O)O)cc3)n2)c(F)c1 [CBK286776] | 91.5 |
| CC(C)c1nnc(C2(c3ccc(Br)cc3)CCOCC2)o1 [CBK306230] | 86.4 |
| C=CCN(CC=C)CCOc1c(C)cc(C)cc1Br [CBK266070G] | 110 |
| CN(c1ccccc1)c1cc(-c2cccc(O)c2)nc2ccnn12 [CBK037121] | 91 |
| Cc1noc(C)c1S(=O)(=O)Nc1nnn[nH]1 [CBK062378] | 112 |
| CC(C)Oc1cccc2cccc(C(O)CN(C)C)c12 (centres unmarked) [CBK009892] | 98.5 |
| O=C(NCCc1c[nH]cn1)c1ccccc1-n1cccc1 [CBK161000] | 92.4 |
| CC(C)C(=O)N1CCCC(c2cc3cccnc3[nH]2)C1 (centres unmarked) [CBK284994] | 96.4 |
| CSc1nsc(SCC(=O)Nc2cccc(NC(C)=O)c2)n1 [CBK269833] | 93.2 |
| O=c1c2ccccc2nc(S)n1CC(O)c1ccccc1 (centres unmarked) [CBK288386] | 85.8 |

| SMILES | viability at 28.5 h, 10 µM [%] |
| --- | --- |
| O=C(Cc1c[nH]c2ccccc12)N1CCc2ccccc21 [CBK200366] | 107 |
| O=C(O)CNC(=O)/C(=C\c1ccco1)NC(=O)c1ccccc1Cl [CBK263967] | 84.8 |
| Cc1ccc(C2=NN(C(=N)SC3CC(=O)N(c4ccc(C(=O)O)cc4)C3=O)C(c3ccc(Br)cc3)C2)cc1 (centres unmarked) [CBK263497] | 112 |
| COc1ccc(Cl)cc1S(=O)(=O)N1CCCC(C(=O)NCc2ccccn2)C1 (centres unmarked) [CBK269761] | 96.7 |
| O=c1c(Cc2ccc(Cl)cc2)c(O)ccn1Cc1ccncc1 [CBK291161] | 98.7 |
| Clc1cccc(-c2cncc(NCC3CCOCC3)n2)c1 [CBK037237] | 103 |
| CN1CCC2CN(CCCC(c3ccc(F)cc3)c3ccc(F)cc3)CCN2C1=O (centres unmarked) [CBK024865C] | 89.9 |
| CC(C)(C)NC(=O)c1cccc(N2C(=O)c3ccc(C(=O)O)cc3C2=O)c1 [CBK287123] | 86.8 |
| CCOc1cc(NC2CCN(C(=O)C(C)(C)C3CCCC3)CC2)ncn1 [CBK304430] | 91.2 |
| COc1cc(-c2cnc(N)c(NCC(C)(C)CO)n2)cc(OC)c1OC [CBK063523] | 92.2 |
| O=[N+]([O-])c1ccc(S(=O)(=O)Nc2nnc(Cc3ccc(Cl)cc3)s2)cc1 [CBK200046] | 93.2 |
| CC[C@H]1C[N@@]2CC[C@H]1C[C@@H]2CNS(=O)(=O)c1cccc(C#N)c1 [CBK288746] | 96.9 |
| N#CCCc1ccc(Oc2ncc(C(F)(F)F)cc2Cl)cc1 [CBK161635] | 106 |
| Cc1nc([N+](=O)[O-])c(N2CCN(C)CC2)n1Cc1ccccc1 [CBK261421] | 100 |
| O=C(OCCC1SC(NC2CC3C=CC2C3)=NC1=O)c1c(F)cccc1Cl (centres unmarked) [CBK200061T] | 88.7 |
| Nc1ncnc(NCCC(c2ccccc2)c2ccccc2)c1[N+](=O)[O-] [CBK267294] | 90.5 |
| COc1ccc(C(C)c2cc3c(cc2N)OCO3)cc1 (centres unmarked) [CBK200102T] | 87.2 |
| COc1ccc(CCN(C)C(=O)CCCc2cc3ccccc3[nH]2)cc1OC [CBK051152] | 93.7 |
| CSc1cccc(NC(=O)NCCN2CCNC2=O)c1 [CBK057191] | 103 |
| CC(C)NC(=O)N1CCN2C(=O)N(c3ccccc3)C(=O)[C@@H]2C1 [CBK289579] | 99.4 |
| CC1CC1C(=O)N1CCC(c2nc3ccccc3cc2N)CC1 (centres unmarked) [CBK285090] | 98.8 |
| Cc1cc(NC(=O)CSc2nnc3ccc(-c4ccccc4)nn23)no1 [CBK287679] | 108 |

| SMILES | viability at 28.5 h, 10 µM [%] |
| --- | --- |
| CN(Cc1ccccc1)Cc1c(C2CCNCC2)[nH]c2ncccc12 [CBK285083] | 96 |
| C#CCN1N=C(c2ccc(OC)cc2)Cn2c(cc3sccc32)C1=O [CBK284209] | 91.2 |
| COc1cc(C(=O)O)ccc1OCC(=O)Nc1ccc(F)cc1 [CBK287101] | 95.5 |
| O=C(Nc1ccc(S(=O)(=O)Nc2nccc(/C=C/c3ccc(Cl)cc3)n2)cc1)c1ccc(Br)cc1 [CBK263500] | 103 |
| CCn1c(SCc2cc(C)no2)nnc1C1CC1 [CBK297758] | 102 |
| COc1cccc(C(=O)Nc2nc3ccc(F)cc3s2)c1 [CBK287342] | 86.9 |
| C#CCNC(=O)c1nn(Cc2ccc(CN3C(=O)CCC3=O)cc2)c2ccc(OC)cc12 [CBK048668] | 86.2 |
| O=C(NCc1nnc(-c2cccs2)o1)c1cccc(-c2ccc(F)cc2)c1 [CBK286296] | 86.9 |
| CCn1nc(CO)c2c1CCN(CC(=O)NCc1cccs1)C2 [CBK307638] | 92.8 |
| O=C(O)CCC(=O)Nc1cccc(C(=O)Nc2ccc(Br)cc2)c1 [CBK269129] | 94.6 |
| CCN(C(=O)c1ccc(=O)[nH]c1)C(CC1CCCCC1)c1ccccc1 (centres unmarked) [CBK062678] | 91.1 |
| COc1cc2c3c(cccc3c1)CC(C)(N(C)C)C2 (centres unmarked) [CBK024357C] | 105 |
| Cc1cccc(C(=O)Nc2nc3ccc(S(C)(=O)=O)cc3s2)c1 [CBK287323] | 89.8 |
| O=C(O)c1nccnc1-c1ccc(Cn2ccc3ccccc32)cc1 [CBK050811] | 100 |
| Cc1cc(COc2ccnc(N3CCCN(CCCO)CC3)n2)no1 [CBK083917] | 98.4 |
| Cc1noc(C)c1CN1CCC(Oc2ccccc2)CC1 [CBK305811] | 89.6 |
| Nc1ncc(-c2ccc3c(c2)OCO3)nc1-c1ccc(O)cc1 [CBK122505] | 94.7 |
| C[C@@H](c1ccccc1)N1C(=O)[C@@H]2CN(C(=O)COCC(=O)O)CCN2C1=O [CBK289636] | 94.3 |
| CCCC(=O)c1ccc(S(=O)(=O)N2CCCN(Cc3cccnc3N3CCOCC3)CC2)cc1 [CBK062900] | 93.9 |
| C[C@H]1CN2C[C@H](O)CC2CN1Cc1cccc2ccccc12 (some centres unmarked) [CBK284717] | 92.5 |
| C/C(CC(=O)Nc1ccccc1C(N)=O)=N\NC(=O)c1ccoc1C [CBK262957] | 100 |
| O=C(Nc1nnc(C2=COCCO2)o1)c1ccc(-c2ccccc2)cc1 [CBK287407] | 84.5 |

| SMILES | viability at 28.5 h, 10 µM [%] |
| --- | --- |
| Nc1ccc(NC(=O)c2ccc(NC(=O)c3cnc(-c4ccccc4)c(-c4ccncc4)c3)cc2)cc1 [CBK037463] | 101 |
| N=c1n(CCN2CCOCC2)c2ccccc2n1CC(O)c1cccs1 (centres unmarked) [CBK262895C] | 99.1 |
| CC(=O)N1CCCc2cc(C(O)CN3CCCC(C)C3)ccc21 (centres unmarked) [CBK282142] | 84.1 |
| O=C(NC1CCN(CCOc2ccccc2F)CC1)c1cccs1 [CBK305737] | 96.8 |
| O=C(c1cnc2ccccc2c1)N1CCc2ccccc21 [CBK200284] | 77.7 |
| Cn1cc(CC(=O)NCc2ccc(OC3CCNCC3)cc2)c2ccccc21 [CBK028430T] | 92.8 |
| Cc1ccccc1C1(O)CCN(C(=O)C(c2cccs2)c2cccs2)CC1 [CBK286483] | 106 |
| Cc1ncc(CN2CCCC(Cc3nc4ccccc4[nH]3)C2)s1 (centres unmarked) [CBK281902] | 99.7 |
| CCOC(=O)c1c(-c2cccs2)csc1NC(=O)CN1CCCCCC1 [CBK265294G] | 106 |
| CS(=O)(=O)NCC1(c2ccccc2)CCN(S(=O)(=O)c2c(Cl)cccc2Cl)CC1 [CBK051633] | 89.9 |
| C[C@H](Nc1nc(-c2ccc(-c3ccccc3)cc2)cnc1N)c1ccccc1 [CBK063760] | 93.5 |
| O=C(c1cccs1)N(Cc1ccco1)Cc1cc2ccccc2[nH]c1=O [CBK269602] | 104 |
| CC(NC(=O)N(Cc1cccc2ccccc12)C1CCC(N)CC1)c1cccc2ccccc12 (centres unmarked) [CBK000482C] | 67.8 |
| O=c1ccc(O)nn1CN1CCN(Cc2ccccc2)CC1 [CBK265539] | 91.5 |
| CNC(=O)CN1CCN(c2cc(C#N)ccc2C(F)(F)F)CC1=O [CBK306441] | 93.6 |
| Cc1cc(Cn2nnc(-c3ccc(Br)cc3)n2)cc(C)c1O [CBK291129] | 119 |
| CCOC(=O)N1CCN(CCC(=O)Nc2ccc3c(c2)CCC3)CC1 [CBK264220] | 111 |
| CC(C)(C)c1ccc(-c2cnc3nc(O)ccc3c2)cc1 [CBK081284] | 74.6 |
| Cc1cc(C)n(CC(C)NC(=O)c2cc(C(F)(F)F)nn2C)n1 (centres unmarked) [CBK281671] | 92.2 |
| O=C(CCSCc1nc2sc3c(c2c(=O)[nH]1)CCC3)N1CCC1 [CBK304536] | 75.7 |
| Cc1ccc(S(=O)(=O)N(CC(=O)N2CCN(C)CC2)Cc2ccc(Cl)cc2Cl)cc1 [CBK265144] | 100 |

same assay, conditions: human, hela cells, % viability, bulk resorufin, single well

| SMILES | viability at 28.5 h, 10 µM [%] |
| --- | --- |
| O=C1NC(=S)NC(=O)C1=Cc1ccc(OCc2ccccc2)c(C(=O)O)c1 [CBK264159] | 117 |
| CNCCc1csc2ccccc12 [CBK027127C] | 118 |
